What all share (format): in vivo
In test [1] the test system is Third larval stages of Periplanela americana. As to the kind of experiment: Test with cockroaches - dip treatment. To be noted: dip treatment 60 seconds, after 7 days, 100% = all cockroach larvae killed. The method, then:
Test with Cockroaches—Dip Treatment
Test animals: Third larval stages of Periplanela americana
(§1) Solvent: Dimethyl sulphoxide
(§2) 20 mg of active compound are dissolved in one ml of dimethyl sulphoxide. To prepare a suitable formulation, the solution of active compound is diluted with water to the particular concentration desired.
[…] of this preparation of active compound are pipetted into tubes (Ø 1.5 cm, H 10 cm). 4 cockroach larvae are anaesthetized with CO2 and transferred into a tube (Ø 1.2 cm, H 9 cm) with 3 holes (bottom and 5 cm below the upper rim). […] The tube is dipped into the preparation of active compound for 60 seconds, with all cockroach larvae being wetted completely. After the liquid has run off, the cockroach larvae are transferred to filter discs in PP dishes (Ø 9.7 cm. H 8 cm).
After 2 and 24 hours and after 7 days, the activity of the preparation of active compound is determined. 100% means that all cockroach larvae have been killed; 0% means that none of the cockroach larvae have been killed.

The subject of a further test is Lucilia cuprina larvae. As to the kind of experiment: Blowfly larvae test / development-inhibitory action. To be noted: 48 h, read-out: % action (mortality of larvae). How it is done: Blowfly Larvae Test/Development-Inhibitory Action
Test animals: Lucilia cuprina larvae
as §1, §2
About 20 Lucilia cuprina larvae are introduced into a test tube which contains about 1 cm^3 of horsemeat and 0.5 ml of the preparation of active compound to be tested. The activity of the preparation of active compound is determined after 48 hours as the mortality of the larvae in %.
The test tubes are then transferred into a beaker whose bottom is covered with sand. After a further 12 days, the test tubes are removed and the pupae and flies are counted. The development-inhibitory action is stated as inhibition of hatching in % (ratio of pupae to flies that have hatched) after 1.5 times the development period of an untreated control.

Test [2] has as its system Adults of Ctenocephalides felis, strain "Georgi". In words: Test with cat fleas / oral uptake. Particulars: 24 h, read-out: % action (mortality of larvae). The method, then: Test with Cat Fleas/Oral Uptake
Test animals: Adults of Crenocephalides felis
Solvent: Dimethyl sulphoxide (DMSO)
To produce a suitable preparation, a suitable solution of active compound is prepared from 20 mg of active compound and 1 ml of DMSO. 20 μl of this formulation are added to 4 ml of citrated cattle blood and stirred.
20 unfed adult fleas (Ctenocephalides felis, strain “Georgi”) are placed into a chamber (Ø 5 cm) whose top and bottom are closed with gauze. A metal cylinder whose underside is covered with parafilm is placed onto the chamber. The cylinder contains the 4 ml of blood/active compound formulation which can be taken up by the fleas through the parafilm membrane. Whereas the blood is warmed to 37° C., the temperature in the area of the flea chambers is adjusted to 25° C. Controls are mixed with the same volume of DMSO, without addition of a compound. The determinations are carried out triplicate.
After 24 h, the mortality in % is determined.
Compounds which effect an at least 25% kill of the fleas within 24 h are judged to be effective.

Structures are written as SMILES.

A word on the mortality: it is the percentage killed. Consider `Cc1s/c(=N\C#N)n2c1N(Cc1ccc(Cl)nc1)CC2` [Compound I-1, 1-[6-Chloro-3-pyridylmethyl]-5-cyanoimino-7-methyl-4.5-dihydro[1,3]diazolano-[1,2-c][1,3]thiazoline], for which the “% action (7 d)” value in test [1] (100 ppm), in test [1] (300 ppm) and in test [1] (1000 ppm) was 100% throughout. The mortality at 100 ppm in the test with Lucilia cuprina larvae amounted to 100%; in test [2], 30%. Further, in the test with Lucilia cuprina larvae, the mortality at 300 ppm worked out at 100%. Besides, the mortality at 1000 ppm with Lucilia cuprina larvae was 100%.

(Values after US6838462B2, “Insecticidal azoles” (Bayer CropScience LP, priority 2001, dated 2005).)
